Results from patent publication US7427625B2, “Substituted thiatriazaacenaphthylene-6-carbonitrile kinase inhibitors” (Janssen Pharmaceutica, N.V., priority 2006, dated 2008).

Legend:
EGFR = target: T1, EGFR (Homo sapiens, UniProt P00533); test: EGFR Kinase Assay; assay type: biochemical; conditions: for inhibition at 2 µM: test concentration of 2 μM, read-out: EGFR percent inhibition
T1 construct: The intracellular portion of EGFR started at nucleotide 2189 (corresponding to amino acid 667) and ended at the termination codon; made in house; host or cells: Sf9 insect cells (baculovirus)
Text: The EGFR kinase used was a fusion of Glutathione-S-Transferase (GST) and a PCR amplified intracellular portion of EGFR (NM_005228). The intracellular portion of EGFR started at nucleotide 2189 (corresponding to amino acid 667) and ended at the termination codon. The portion was PCR amplified with primers that added the lambda attB sequences to each end, recombined into an entry vector, then into a GST destination vector (as described in Gateway Technologies Manual by Invitrogen Corporation, Carlsbad, Calif.).
The destination vector was recombined in the DH10BAC strain of bacteria to produce a bacmid. The bacmid was transfected into Sf 9 cells and the supernatant containing the baculovirus was collected. The GSTEGFR protein was purified using large cultures of Sf 9 cells infected with stock virus. After an appropriate period of time, the cells were collected and lysed. The GSTEGFR was then purified from the lysate on Glutathione-Sepharose columns (as described by Amersham Biosciences, Buckinghamshire, United Kingdom).
The EGFR substrate was prepared by biotinylating polyGluTyr (128 mg) (Sigma, St. Louis, Mo.) in a 1×PBS buffer incubated together with a 12-fold molar excess of Sulfo-NHS-LC-Biotin on ice for at least 2 hrs. The free biotin was separated from the biotinylated polyGluTyr on a gel filtration column.
A mixture of a 10× kinase buffer (500 mM Tris at pH 8.0, 100 mM Magnesium Chloride and 1 mM Sodium Vanadate), DTT (1 mM final from 500 mM stock), ATP (5 μM final from 10 mM stock), biotinylated polyGluTyr (10 μg/μL stock), γ-^33P ATP (10 μCi/μL stock) and water was added to each well (90 μL/well) of a Streptavidin Flashplate (Perkin Elmer, Wellesley, Mass.).
Test compound in 100% DMSO (2 μL) was added to the appropriate wells. Diluted GSTEGFR (1:300 dilution in 50 mM Tris at pH 8.0 and 0.1% bovine serum albumin) (10 μL) was added to the wells to initiate the reactions.
The plates were incubated at 30° C. for 1 hr with shaking. The reacted contents were removed and the plates were sequentially washed three times with a 1×PBS stop buffer (300 μL without Magnesium and Calcium) and 100 mM EDTA. After the final wash, the same stop buffer (200 μL) was added to the wells. The plates were then sealed and read on the TopCount scintillation counter.
Test compounds were assayed in triplicate at 16 concentrations at half-log dilutions starting at 200 uM. A maximum and minimum signal for the assay was determined on each plate. The percent inhibition of a test compound was calculated according to the formula
For a series of test concentrations, the IC50 was derived by graphing percent inhibition against the log of the concentrations tested for a given compound. For those compounds without an IC50, the percent inhibition results are shown at a test concentration of 2 μM.

Aurora-A = target: T2, Aurora-A (Mus musculus, UniProt P97477); test: Aurora-A Screening Assay; assay type: biochemical, murine; conditions: for inhibition at 1 µM: test concentration of 1 μM, read-out: Aurora-A percent inhibition
T2 construct: followed by the full length protein encoding the murine Aurora-A; polyhistidine (N); made in house; host or cells: sf9 insect cells
T2 sequence (P97477 1-395): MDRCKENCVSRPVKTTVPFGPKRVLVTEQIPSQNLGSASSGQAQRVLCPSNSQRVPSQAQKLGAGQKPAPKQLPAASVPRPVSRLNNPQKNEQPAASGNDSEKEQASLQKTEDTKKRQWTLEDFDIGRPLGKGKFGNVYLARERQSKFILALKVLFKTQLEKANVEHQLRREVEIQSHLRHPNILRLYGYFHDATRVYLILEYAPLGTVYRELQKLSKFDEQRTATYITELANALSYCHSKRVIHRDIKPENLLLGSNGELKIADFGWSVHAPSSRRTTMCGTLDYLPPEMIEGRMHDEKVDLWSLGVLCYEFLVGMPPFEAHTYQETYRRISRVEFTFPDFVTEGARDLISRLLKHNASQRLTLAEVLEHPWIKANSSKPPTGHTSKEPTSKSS
Method: (§1) A kinase reaction mixture was prepared containing 50 mM Tris-HCl at pH 8, 10 mM, MgCl20.1 mM […], 1 mM DTT, 10 μM ATP, 0.025 μM biotinylated histone-H1 peptide substrate and 0.2 μCuries per well ^33P-γ-ATP (2000-3000 Ci/mmol). 70 μL of the kinase reaction mixture was dispensed into the well of a Streptavidin FlashPlate.
(§2) Test compound stock in 100% DMSO (1 μL) was added to the wells resulting in a final concentration of 1% DMSO in the reaction with a 100 μL final reaction volume. Each enzyme was diluted in 50 mM Tris-HCl pH=8.0, 0.1% BSA and 30 μL was added to each well to initiate the reaction. The reaction was incubated for one hour at 30° C. At the end of the 1 hr incubation, the reaction was terminated by aspirating the mixture from the plate and washing the wells twice with PBS containing 100 mM EDTA. The biotinylated peptide substrate became immobilized on the Flashplate^198 and the incorporation of ^33P-γ-ATP was measured by reading the plate on a scintillation counter. Inhibition of the enzymatic activity was measured by observing a reduced amount of ^33P-γ-ATP incorporated into the immobilized peptide.
Aurora-A is a fusion protein containing a polyhistidine tag at the N terminus followed by the full length protein encoding the murine Aurora-A (Accession number GB BC014711) expressed and purified from sf9 insect cells. The assay used 400 ng of the N-terminal biotinylated peptide biotin-GRTGRRNSI-amide (Aurora-A) per well.
(§3) The IC50 was derived according to the procedure described in Example 2. For those compounds without an IC50, the percent inhibition results are shown at a test concentration of 1 μM.

VEGF-R2 = target: T3, VEGF-R2 (Rattus norvegicus, UniProt O08775); test: VEGF-R2 Screening Assay; assay type: biochemical; conditions: for inhibition at 1 µM: test concentration of 1 μM, read-out: VEGF-R2 percent inhibition
T3 construct: polyhistidine (N)
Method: as §1, §2
The VEGF-R2 enzyme is a fusion protein containing a polyhistidine tag at the N terminus followed by amino acids 786 to 1343 of the rat VEGF-R2 kinase domain (Accession number U93306). The assay used 150 ng of the N-terminal biotinylated peptide biotin-KHKKLAEGSAYEEV-amide (VEGF-R2) per well.
as §3

HER-2 = target: T4, HER-2 (Homo sapiens, UniProt P04626); test: HER-2 Kinase Assay; assay type: biochemical; conditions: for inhibition at 1 µM: test concentration of 1 μM, read-out: HER-2 percent inhibition
T4 construct: the nucleotides encoding amino acids 679 to 1255 of HER-2; purchased Proqinase (Freiburg, Germany)
Method: HER-2 kinase was purified at Proqinase (Freiburg, Germany) from a construct that consisted of a fusion of GST (Glutathione-S-Transferase), HIS6-Thrombin and the nucleotides encoding amino acids 679 to 1255 of HER-2.
A mixture of a 10× kinase reaction buffer (600 mM Hepes at pH 7.5, 30 mM Magnesium Chloride, 0.03 mM Sodium Vanadate and 500 μg/mL PEG 20,000), DTT (1.2 mM final from a 10 mM stock), ATP (1 μM from a 10 mM stock), biotinylated polyGluTyr (1.5 ng/μL final from stock of 1 μg/μL prepared by Upstate Biotechnologies, Lake Placid, N.Y.), Manganese Chloride (3 mM final from a 1 M stock), γ-^33P-ATP (10 μCi/μL stock) and water (70 μL/well) was added to each well of a Streptavidin Flashplate (Cat. #SMP103, NEN, Boston, Mass.).
Test compound stock (1 μL) was added to the appropriate wells. Diluted GSTHER2 kinase (6.7 ng/μL diluted into 50 mM Tris-HCl at pH 8.0 and 0.1% bovine serum albumin) (30 μL) was added (total volume of 200 ng/well) to initiate the reactions.
The reaction plates were incubated at 30° C. for 1 hr. The reaction was terminated by aspiring the reaction mixture from the plate wells and washing the wells three times with a 1×PBS stop buffer (300 μL) and 100 mM EDTA. After the final wash, the same stop buffer (200 μL) was again added to the wells. The plates were then sealed and read on the TopCount scintillation counter.
as §3

T1 sequence (P00533 669-1210 limits assumed): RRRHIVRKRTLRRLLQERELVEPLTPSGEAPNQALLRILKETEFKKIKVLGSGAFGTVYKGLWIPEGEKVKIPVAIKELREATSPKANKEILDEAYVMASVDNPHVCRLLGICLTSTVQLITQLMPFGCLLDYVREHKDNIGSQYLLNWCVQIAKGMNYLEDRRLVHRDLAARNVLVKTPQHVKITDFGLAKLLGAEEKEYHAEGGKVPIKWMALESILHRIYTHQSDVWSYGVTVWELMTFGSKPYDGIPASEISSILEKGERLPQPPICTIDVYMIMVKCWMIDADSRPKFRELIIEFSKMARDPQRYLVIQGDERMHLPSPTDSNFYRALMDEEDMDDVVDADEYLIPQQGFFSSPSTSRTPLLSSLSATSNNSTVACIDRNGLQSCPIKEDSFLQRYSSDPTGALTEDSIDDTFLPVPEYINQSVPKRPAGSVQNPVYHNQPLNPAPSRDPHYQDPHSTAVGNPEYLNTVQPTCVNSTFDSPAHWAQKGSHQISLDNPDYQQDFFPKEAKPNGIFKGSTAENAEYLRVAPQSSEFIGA
T3 sequence (O08775 786-1343): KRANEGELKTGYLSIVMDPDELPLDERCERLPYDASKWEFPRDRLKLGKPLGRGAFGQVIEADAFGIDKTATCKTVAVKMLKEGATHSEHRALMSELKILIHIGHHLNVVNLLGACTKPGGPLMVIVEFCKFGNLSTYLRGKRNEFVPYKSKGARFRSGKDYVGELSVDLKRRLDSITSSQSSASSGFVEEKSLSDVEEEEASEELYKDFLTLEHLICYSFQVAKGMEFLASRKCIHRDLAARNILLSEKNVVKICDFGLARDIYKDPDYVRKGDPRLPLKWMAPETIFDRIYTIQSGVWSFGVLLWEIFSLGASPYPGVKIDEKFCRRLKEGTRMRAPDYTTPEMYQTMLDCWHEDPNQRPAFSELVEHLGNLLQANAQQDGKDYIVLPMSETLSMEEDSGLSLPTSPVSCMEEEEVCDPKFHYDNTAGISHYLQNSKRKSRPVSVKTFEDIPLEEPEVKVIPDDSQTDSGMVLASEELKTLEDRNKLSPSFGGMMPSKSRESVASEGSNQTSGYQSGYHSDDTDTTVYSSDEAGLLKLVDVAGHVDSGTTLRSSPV
T4 sequence (P04626 679-1255): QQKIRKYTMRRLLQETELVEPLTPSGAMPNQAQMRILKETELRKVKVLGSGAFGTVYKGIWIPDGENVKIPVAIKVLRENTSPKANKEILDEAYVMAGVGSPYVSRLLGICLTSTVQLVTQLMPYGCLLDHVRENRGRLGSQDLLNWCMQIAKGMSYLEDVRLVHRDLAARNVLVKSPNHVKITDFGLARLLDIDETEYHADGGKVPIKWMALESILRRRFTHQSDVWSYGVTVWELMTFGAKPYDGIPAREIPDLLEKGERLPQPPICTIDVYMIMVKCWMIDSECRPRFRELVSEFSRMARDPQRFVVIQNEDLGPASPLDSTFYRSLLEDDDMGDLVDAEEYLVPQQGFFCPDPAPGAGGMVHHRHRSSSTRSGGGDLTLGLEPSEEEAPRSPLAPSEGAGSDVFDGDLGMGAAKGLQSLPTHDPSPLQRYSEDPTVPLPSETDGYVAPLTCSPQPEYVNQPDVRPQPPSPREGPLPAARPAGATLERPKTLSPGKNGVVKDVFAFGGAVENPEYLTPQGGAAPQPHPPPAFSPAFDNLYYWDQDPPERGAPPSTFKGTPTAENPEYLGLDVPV

Row | Structure (SMILES) | IC50 (EGFR) [nM] | inhibition at 1 µM (Aurora-A) [%] | inhibition at 1 µM (VEGF-R2) [%] | IC50 (HER-2) [nM] | inhibition at 2 µM (EGFR) [%] | inhibition at 1 µM (HER-2) [%] | IC50 (Aurora-A) [nM] | IC50 (VEGF-R2) [nM]
1 | N#Cc1cnc2sc(C(=O)Nc3ccc(CN4CCC(F)CC4)cc3)c3c2c1N(c1c(Cl)ccc2c1OCO2)C(=O)N3 [Cpd 26, 5-(5-chloro-benzo[1,3]dioxol-4-yl)-6-cyano-4-oxo-4,5-dihydro-3H-1-thia-3,5,8-triaza-acenaphthylene-2-carboxylic acid [4-(4-fluoro-piperidin-1-ylmethyl)-phenyl]-amide] | 2020 | 23 | 11 | > 1000 | – | – | – | –
2 | N#Cc1cnc2sc(C(=O)Nc3ccncc3)c3c2c1N(c1c(Cl)ccc2c1OCO2)C(=O)N3 [Cpd 40, 5-(5-chloro-benzo[1,3]dioxol-4-yl)-6-cyano-4-oxo-4,5-dihydro-3H-1-thia-3,5,8-triaza-acenaphthylene-2-carboxylic acid pyridin-4-ylamide] | – | 15 | 9 | – | 30 | 0 | – | –
3 | Cc1cc(NC(=O)c2sc3ncc(C#N)c4c3c2NC(=O)N4c2c(Cl)ccc3c2OCO3)no1 [Cpd 34, 5-(5-chloro-benzo[1,3]dioxol-4-yl)-6-cyano-4-oxo-4,5-dihydro-3H-1-thia-3,5,8-triaza-acenaphthylene-2-carboxylic acid (5-methyl-isoxazol-3-yl)-amide] | – | 29 | 16 | > 1000 | 30 | – | – | –
4 | COc1cc(NC(=O)c2sc3ncc(C#N)c4c3c2NC(=O)N4c2c(Cl)ccc3c2OCO3)ccc1OCCN1CCCCC1 [Cpd 31, 5-(5-chloro-benzo[1,3]dioxol-4-yl)-6-cyano-4-oxo-4,5-dihydro-3H-1-thia-3,5,8-triaza-acenaphthylene-2-carboxylic acid [3-methoxy-4-(2-piperidin-1-yl-ethoxy)-phenyl]-amide] | 513 | 22 | 17 | – | – | 35 | – | –
5 | N#Cc1cnc2sc(C(=O)Nc3cc[nH]n3)c3c2c1N(c1c(Cl)ccc2c1OCO2)C(=O)N3 [Cpd 33, 5-(5-chloro-benzo[1,3]dioxol-4-yl)-6-cyano-4-oxo-4,5-dihydro-3H-1-thia-3,5,8-triaza-acenaphthylene-2-carboxylic acid (1H-pyrazol-3-yl)-amide] | 1220 | 29 | 18 | – | – | 37 | – | –
6 | N#Cc1cnc2sc(C(=O)Nc3ccc(CN4CCC(O)CC4)cc3)c3c2c1N(c1c(Cl)ccc2c1OCO2)C(=O)N3 [Cpd 23, 5-(5-chloro-benzo[1,3]dioxol-4-yl)-6-cyano-4-oxo-4,5-dihydro-3H-1-thia-3,5,8-triaza-acenaphthylene-2-carboxylic acid [4-(4-hydroxy-piperidin-1-ylmethyl)-phenyl]-amide] | 598 | 16 | 28 | – | – | 44 | – | –
7 | CN(C(=O)c1sc2ncc(C#N)c3c2c1NC(=O)N3c1c(Cl)ccc2c1OCO2)c1ccc(CN2CCOCC2)cc1 [Cpd 29, 5-(5-chloro-benzo[1,3]dioxol-4-yl)-6-cyano-4-oxo-4,5-dihydro-3H-1-thia-3,5,8-triaza-acenaphthylene-2-carboxylic acid methyl-(4-morpholin-4-ylmethyl-phenyl)-amide] | – | 13 | 10 | – | 2 | 0 | – | –
8 | N#Cc1cnc2sc(C(=O)Nc3ncccn3)c3c2c1N(c1c(Cl)ccc2c1OCO2)C(=O)N3 [Cpd 35, 5-(5-chloro-benzo[1,3]dioxol-4-yl)-6-cyano-4-oxo-4,5-dihydro-3H-1-thia-3,5,8-triaza-acenaphthylene-2-carboxylic acid pyrimidin-2-ylamide] | – | 16 | 22 | > 1000 | 42 | – | – | –
9 | N#Cc1cnc2sc(C(=O)N3CCCC(F)C3)c3c2c1N(c1c(Cl)ccc2c1OCO2)C(=O)N3 (centres unmarked) [Cpd 43, 5-(5-chloro-benzo[1,3]dioxol-4-yl)-2-(3-fluoro-piperidine-1-carbonyl)-4-oxo-4,5-dihydro-3H-1-thia-3,5,8-triaza-acenaphthylene-6-carbonitrile] | – | – | – | 10600 | – | – | > 10000 | ~100000
10 | N#Cc1cnc2sc(C(=O)Nc3ccc(CN4CCCC(F)C4)cc3)c3c2c1N(c1c(Cl)ccc2c1OCO2)C(=O)N3 (centres unmarked) [Cpd 44, 5-(5-chloro-benzo[1,3]dioxol-4-yl)-6-cyano-4-oxo-4,5-dihydro-3H-1-thia-3,5,8-triaza-acenaphthylene-2-carboxylic acid [4-(3-fluoro-piperidin-1-ylmethyl)-phenyl]-amide] | – | – | – | 1100 | – | – | 1100 | > 10000
